Test [1] deals with T1, carbonic anhydrase II (Bos taurus, UniProt P00921). The test can be described thus: Carbonic anhydrase refolding yield by esterase activity (pNPA). The settings on record: for α/α0 / α (refolding selectivity parameter, kr/kagg): 0.5 M additive, base buffer 0.5 M GuHCl; for α/α0: relative to 0.5M NaCl; for α (refolding selectivity parameter, kr/kagg): fit to second-order aggregation model; for order of yield of active protein as a function of buffer additive: equimolar (0.5M) additives.
T1 sequence (P00921 whole entry): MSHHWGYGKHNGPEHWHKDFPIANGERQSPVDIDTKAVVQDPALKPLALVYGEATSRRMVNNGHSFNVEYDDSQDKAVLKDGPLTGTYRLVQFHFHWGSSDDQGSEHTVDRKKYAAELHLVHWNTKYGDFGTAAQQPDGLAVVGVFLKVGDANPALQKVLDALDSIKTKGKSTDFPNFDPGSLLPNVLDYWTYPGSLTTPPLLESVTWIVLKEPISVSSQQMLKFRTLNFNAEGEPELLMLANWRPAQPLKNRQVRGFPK
Protocol: Esterase activity assays were performed as a function of initial unfolded protein concentration and buffer composition to determine how equimolar concentrations of NaCl, ArgHCl, and GuHCl each affected refolding yield (FIG. 16).
High concentrations of carbonic anhydrase (>300 μM) were denatured in 6M GuHCl and equilibrated overnight. Refolding was initiated by dilution to 0.5M GuHCl with 50 mM Tris-HCl buffer, pH 7.5. This final GuHCl concentration was selected because it yields a mixture of active, refolded protein and aggregates. The distribution of this mixture was analyzed via esterase activity, size exclusion HPLC, and dynamic light scattering as described above.
Carbonic Anhydrase Esterase Activity—Esterase activity of carbonic anhydrase was assessed using para-nitrophenylacetate (pNPA) as the substrate as described previously. […] Briefly, 10 μl samples of carbonic anhydrase solution were added to 500 μl of Tris-HCl, pH 7.5 and 50 μl of 50 mM pNPA in acetonitrile. Kinetics of hydrolysis of pNPA was observed by the increase in absorbance at 400 nm due to the appearance of the paranitrophenolate ion (pNP^−). In all cases, the observed hydrolysis rate in absorbance units per second (AU/s) under these conditions was constant (pseudo-zero order). Hydrolysis rates were corrected for the hydrolysis of pNPA by the buffer for each type of buffer used. […] The active protein concentration data was reproducible to within 5-8% in replicated experiments.

The target of test [2] is T2, insulin binding to immobilized monoclonal anti-insulin (Homo sapiens, UniProt P01308).
T2 construct: purchased Sigma-Aldrich (insulin); Fitzgerald Industries (antibody) I8530; 10-130 clone M322214
T2 sequence (P01308 25-54 limits assumed): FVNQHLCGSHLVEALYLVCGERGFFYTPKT
T2 sequence (P01308 90-110 limits assumed): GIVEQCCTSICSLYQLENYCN
The test can be described thus: Surface plasmon resonance (Biacore 3000): globular protein association/dissociation kinetics in buffer with additive. The conditions noted are these: for ka / kd: pH 7.4, estimated error 15%. The procedure: Surface plasmon resonance experiments were conducted to measure the effect of added ArgHCl and GuHCl on the kinetics of globular protein association and dissociation versus an equimolar salt control (NaCl). The data set shown in the figure is a composition of 8 different concentration runs plus replicates, for a total of 16 runs. At t=140 sec, the flow cell with immobilized anti-insulin was exposed to a constant concentration of insulin in the range of 2 to 188 nM for 3 minutes. During this 3 minutes, the antibody and antigen were free to associate and dissociate. The net reaction is the binding of free antigen in solution, resulting in an increase in detector response proportional to the mass of antigen bound. At t=320 sec, the insulin concentration in the flow cell inlet is returned to zero, and the bound antigen then dissociates from the surface. All 16 runs were simultaneously fit to a binding model by minimizing the squared residuals to yield the association and dissociation rate constants, ka and kd. This process was repeated to yield association, dissociation, and equilibrium constant data for the model systems in various buffers as shown in Table 4.
Globular Protein Association Kinetics—Protein association and dissociation rate constants, ka and kd, were measured for globular proteins via surface plasmon resonance on a Biacore 3000 instrument. Monoclonal anti-insulin was immobilized on a Biacore CM5 sensor chip via amine coupling. The amount of immobilized antibody was selected to give a detector response in the range of 50-100 RU when antigen was present. A reference surface was created by activating and deactivating the surface without coupling an antibody to it.
Different concentrations of insulin in the nanomolar range ([…]) were prepared by dilution and injected serially into the antibody-containing and reference flow cells. […] Pocker, Y. & Biswas, Subhasis, B. (1981) Biochemistry 20, 4354-4361. The dissociation rate was sufficiently fast in buffer that a regeneration buffer was not required. Kinetic constants were extracted by simultaneous fitting of ka and kd to each set of sensorgrams using a 1:1 kinetic model in the BIAevaluation 3.0 software package.

Test [3] addresses T1, carbonic anhydrase II. Nature of the test: Size exclusion HPLC of multimers formed during refolding of carbonic anhydrase. The conditions noted are these: for A2, percentage of total carbonic anhydrase / A3-5, percentage of total carbonic anhydrase / A6-15, percentage of total carbonic anhydrase / M (monomer), percentage of total carbonic anhydrase / Large multimers, percentage of total carbonic anhydrase: 0.5 M additive; for Large multimers, percentage of total carbonic anhydrase: inferred by difference. Further details: purchased Sigma-Aldrich C2522; species or system bovine. The procedure:
Size exclusion HPLC experiments were performed to analyze the distribution of multimers formed during refolding. CA was refolded with three different additives, 0.5M NaCl, 0.5M GuHCl, and 0.5M ArgHCl, relative to a base refolding buffers of 0.5M GuHCl, as done in the esterase activity assays above. […] Other than this protein concentration difference, these experiments allow direct comparison of how an additional 0.5M of the three different cations affect refolding.
The samples were not filtered prior to introduction into the HPLC column.
Size Exclusion HPLC—Size exclusion HPLC (SE-HPLC) experiments were performed on a Beckman System Gold HPLC instrument equipped with a Tosohaas G3000SWXL size exclusion column and a UV detector. 30 μl samples were introduced to the column by a constant flow of 1 ml/min mobile phase. Each sample ran for 15 minutes, with carbonic anhydrase eluting between 6 and 10 minutes, depending on its molecular weight and buffer. […] A mixture of lysozyme, carbonic anhydrase, and bovine serum albumin (monomer and dimer) was used as a standard to calibrate molecular weight to retention time. Using this calibration curve and the breakthrough time of the column, the largest multimer that could pass through the column was a 15-mer. When significant mass was missing from a chromatogram, large multimers were quantitated by difference. The presence of large multimers was confirmed via turbidity or dynamic light scattering for each buffer. The instrument was cleaned with 30 μl injections of 4M GuHCl, a denaturing concentration found to dissociate and elute precipitates and large soluble carbonic anhydrase multimers.
On the technique in general: Size exclusion chromatography separates by hydrodynamic size, large species first.

Test [4] has as its target Human insulin (I8530), Sigma-Aldrich (human) (UniProt P01308). The test can be described thus: SPR, Biacore 3000, antibody immobilised on CM5, insulin as analyte, 1:1 model; HBS-EP + 0.5 M ArgHCl. A general note: Surface plasmon resonance follows binding to a sensor surface in real time, without labels.
Test [5] has the same target. Nature of the test: SPR; association rate constant in HBS-EP + 0.5 M GuHCl relative to HBS-EP + 0.5 M NaCl.
Test [6] shares this target. Nature of the test: SPR, Biacore 3000, antibody immobilised on CM5, insulin as analyte, KD = kd/ka; HBS-EP + 0.5 M ArgHCl.
Test [7] has the same target. The test can be described thus: SPR; dissociation rate constant in HBS-EP + 0.5 M GuHCl relative to HBS-EP + 0.5 M NaCl.
Test [8] has the same target. Nature of the test: SPR, Biacore 3000, antibody immobilised on CM5, insulin as analyte, KD = kd/ka; HBS-EP + 0.5 M GuHCl.
The target is the same in test [9]. The test can be described thus: SPR, Biacore 3000, antibody immobilised on CM5, insulin as analyte, KD = kd/ka; HBS-EP + 0.5 M NaCl.
For test [10] the target is unchanged. Nature of the test: SPR, Biacore 3000, antibody immobilised on CM5, insulin as analyte, 1:1 model; HBS-EP + 0.5 M NaCl.
For test [11] the target is unchanged. Nature of the test: SPR; dissociation rate constant in HBS-EP + 0.5 M ArgHCl relative to HBS-EP + 0.5 M NaCl.
The target is the same in test [12]. The test can be described thus: SPR, Biacore 3000, antibody immobilised on CM5, insulin as analyte, 1:1 model; HBS-EP + 0.5 M GuHCl.
For test [13] the target is unchanged. Nature of the test: SPR; association rate constant in HBS-EP + 0.5 M ArgHCl relative to HBS-EP + 0.5 M NaCl.
The mark [14] stands for this setting: 0.5 M additive, relative to HBS-EP + 0.5 M NaCl.
[15] abbreviates: 0.5M, relative to 0.5M NaCl control.

In general, Kd refers to the constant that tells how readily two partners part at equilibrium. The koff is a measure of how fast the partners let go of each other. As a reminder, the kon is the second-order rate constant of association.

Human insulin (I8530), Sigma-Aldrich (human), sequence (P01308 25-54 limits assumed, chain 1 of 2): as the sequence (P01308 25-54 limits assumed) above

With `Cl.N=C(N)NCCC[C@H](N)C(=O)O` [ArgHCl, arginine hydrochloride], at carbonic anhydrase II [1], the α/α0 is recorded as 5.0; the “α (refolding selectivity parameter, kr/kagg)” value is 47 µM; the “order of yield of active protein as a function of buffer additive” value is listed as “NaCl<<ArgHCl<GuHCl”. Moreover, in [2] (0.5 M additive in HBS-EP), the ka was 12000 M⁻¹ s⁻¹ and the kd is 0.022 s⁻¹. Besides, the affinity in test [2] (0.5 M additive in HBS-EP, KD ≡ kd/ka), expressed as Kd, was 1800 nM. For the same molecule, in test [2] (setting [14]), the ka/ka0 came to 0.27 and the kd/kd0 was 1.6. Besides, in test [2] (setting [15]), the “effect on association rate of insulin and anti-insulin” value is “slowed”; the “effect on dissociation rate of insulin and anti-insulin” value is “accelerated”. For the same molecule, the “yield of monomeric protein” value at carbonic anhydrase II [3] (0.5M added, versus 0.5M NaCl) was “significantly increased”. Moreover, the “average aggregate molecular weight (ignoring the monomer)” value on carbonic anhydrase II [3] (0.5M additive, compared among the three buffers) is listed as “lowest”. Moreover, at carbonic anhydrase II [3] (time 2 min, [U]0 = 20 μM), the “A2, percentage of total carbonic anhydrase” value (“A2, percentage” below) is 30%; the “A3-5, percentage of total carbonic anhydrase” value (from here on “A3-5, percentage”) came out at 25%; the “A6-15, percentage of total carbonic anhydrase” value (“A6-15, percentage” for short) was found to be 21%; the “M (monomer), percentage of total carbonic anhydrase” value (from here on “M (monomer), percentage”) came to 22%. For the same molecule, the “Large multimers, percentage of total carbonic anhydrase” value (“Large multimers, percentage” below) on carbonic anhydrase II [3] (time 2 min, [U]0 = 20 μM) came to 2%. At carbonic anhydrase II [3] (time 20 min, [U]0 = 20 μM), the “A2, percentage” value turned out to be 7%; the “A3-5, percentage” value is 14%; the “A6-15, percentage” value amounted to 26%; the “M (monomer), percentage” value turned out to be 54%. The “Large multimers, percentage” value at carbonic anhydrase II [3] (time 20 min, [U]0 = 20 μM) is recorded as −1%. Moreover, at carbonic anhydrase II [3] (time 38 min, [U]0 = 20 μM), the “A2, percentage” value stood at 4%; the “A3-5, percentage” value is given as 11%; the “A6-15, percentage” value is given as 24%; the “M (monomer), percentage” value is recorded as 62%. The “Large multimers, percentage” value at carbonic anhydrase II [3] (time 38 min, [U]0 = 20 μM) is −1%. On carbonic anhydrase II [3] (time 1500 min, [U]0 = 20 μM), the “A2, percentage” value is 0%; the “A3-5, percentage” value is listed as 0%; the “A6-15, percentage” value was determined as 19%; the “M (monomer), percentage” value stood at 80%. Besides, the “Large multimers, percentage” value at carbonic anhydrase II [3] (time 1500 min, [U]0 = 20 μM) is 1%.
For “Monoclonal anti-insulin (10-130 clone M322214), Fitzgerald Industries (antibody)”, the koff was 0.022 s⁻¹ in test [4], 0.014 s⁻¹ in test [10] and 0.094 s⁻¹ in [12]. Also, the kon in test [4] was 12000 M⁻¹ s⁻¹; in test [10], 44000 M⁻¹ s⁻¹; in test [12], 40000 M⁻¹ s⁻¹. In addition, the ka/ka0 in [5] came out at 0.91; in test [13], 0.27. The dissociation constant (Kd) in [6] was 1800 nM; in [8], 2400 nM; in [9] it was 320 nM. Also, the kd/kd0 in test [7] came to 6.7; in [11] it was 1.6.
Regarding `[Cl-].[Na+]` [NaCl, sodium chloride], at carbonic anhydrase II [1], the α/α0 amounted to 1; the “α (refolding selectivity parameter, kr/kagg)” value was 9.3 µM; the “order of yield of active protein as a function of buffer additive” value is listed as “NaCl<<ArgHCl<GuHCl”. In [2] (0.5 M additive in HBS-EP), the ka was 44000 M⁻¹ s⁻¹ and the kd was 0.014 s⁻¹. At carbonic anhydrase II [3] (time 2 min, [U]0 = 5 μM), the “A2, percentage” value is given as 0%; the “A3-5, percentage” value is given as 0%; the “A6-15, percentage” value amounted to 0%; the “M (monomer), percentage” value turned out to be 56%. Besides, the “Large multimers, percentage” value at carbonic anhydrase II [3] (time 2 min, [U]0 = 5 μM) is on record as 44%. Also, on carbonic anhydrase II [3] (time 20 min, [U]0 = 5 μM), the “A2, percentage” value is given as 0%; the “A3-5, percentage” value stood at 0%; the “A6-15, percentage” value was 0%; the “M (monomer), percentage” value worked out at 56%. The “Large multimers, percentage” value at carbonic anhydrase II [3] (time 20 min, [U]0 = 5 μM) amounted to 44%. Besides, on carbonic anhydrase II [3] (time 38 min, [U]0 = 5 μM), the “A2, percentage” value stood at 0%; the “A3-5, percentage” value was 0%; the “A6-15, percentage” value is 0%; the “M (monomer), percentage” value is listed as 56%. The “Large multimers, percentage” value on carbonic anhydrase II [3] (time 38 min, [U]0 = 5 μM) turned out to be 44%.
